Entries after “also recorded” stand apart in the source; their conditions may differ. Like-named read-outs stand apart in the source and are kept apart here.
How the values were obtained:
[1] = test system: ER+ breast cancer cell (ZR-75-1); assay: MTT assay of cytotoxic effects in ZR-75-1 cells; conditions: short-term treatment, FIG. 5C/5D
Procedure: (§6) Cell viability was analyzed by MTT (3, [4,5-dimethylthiazol-2-yl-]diphenyltetrazolium bromide, 5 mg/ml). Cells were seeding in 96-well plates and incubated overnight, and then changed into the fresh medium containing indicated concentrations of tamoxifen for 72 h. 50 μl of MTT was added to each well and incubated for 2 h, and the purple formazan crystals were dissolved in DMSO. The absorbance was measured by a microplate reader at a wavelength of 570 nm.

[2] = test system: Merlin; assay: Western blot of Merlin expression after tamoxifen treatment; assay type: cell-based; conditions: increasing concentrations, 48 hours
Procedure: (§1) Whole cell extracts were lysed in RIPA buffer and collected to fractionate by SDSPAGE, and then transferred onto PVDF membranes according to the manufacture's protocols (Bio-Rad). After blocking with 5% nonfat milk in TBST for 60 min, membranes were washed and incubated with primary antibodies at 4° C. overnight. Membranes were washed three times for 10 min and incubated with secondary antibodies for 60 min. Protein expressions were visualized by ECL system according to the manufacture's protocols.

[3] = test system: TRBP mRNA; assay: qRT-PCR of TRBP mRNA level; assay type: cell-based; conditions: FIG. 7A
Procedure: (§2) Then, in order to investigate changes in TRBP protein stability, the […] of TRBP was analyzed by further treating the tamoxifen-resistant cell (MCF-7/TR) and the tamoxifen-resistant cell (MCF-7/TR1) with 50 μg/ml cycloheximide (CHX) to block de novo protein synthesis, followed by harvesting the tamoxifen-resistant cell (MCF-7/TR) and the tamoxifen-resistant cell (MCF-7/TR1) at an indicated time point to analyze the expression of TRBP in the tamoxifen-resistant cell (MCF-7/TR) and the tamoxifen-resistant cell through another western blot, wherein the degradation rates were plotted for the average±SEM of at least three independent experiments and analyzed by two-way ANOVA (*P≤0.05 and **P≤0.01).
(§3) Total RNA was isolated by using Trizol reagent according to the manufacturer's instructions. 200 ng of RNA was reverse transcribed to complementary DNA (cDNA) by using a reverse transcriptase enzyme, a random primer, dNTPs and an RNase inhibitor. Real-time PCR was performed by Applied Biosystem Step One Real-time PCR system (Applied Biosystems) according to manufacturer's protocols. Samples run in three independent experiments and GAPDH or α-tubulin were used as an internal control to normalize the target genes.

[4] = test system: tamoxifen-resistant cell (MCF-7/TR)
Procedure: as §6

[5] = test system: SOX2 mRNA; assay: qRT-PCR of stem cell marker mRNA (SOX2); assay type: cell-based; conditions: MCF-7 cells, 2 μM, 48 hours, FIG. 8A/8F
Procedure: (§4) Then, the tamoxifen-sensitive cells (MCF-7) were further collected to analyze protein expression by using a western blot.
After that, RNA was isolated from the tamoxifen-sensitive cell (MCF-7) to analyze the mRNA expression of SOX2 by using a reverse-transcription PCR (qRT-PCR).
as §3

[6] = test system: SOX2 protein; assay: Western blot of SOX2 protein expression; assay type: cell-based
Procedure: In order to identify the downstream modulator of TRBP, the tamoxifen-sensitive cells (MCF-7) were treated with 2 μM tamoxifen for 48 hours, and then RNA of the tamoxifen-sensitive cell (MCF-7) was isolated to analyze the mRNA expression of stem cell markers by using a reverse-transcription PCR (qRT-PCR), with the aforementioned experiment being repeated at least three times, and with ATP5E being used as a positive control for tamoxifen treatment (*P<0.05) by t-test. Then, the tamoxifen-sensitive cells (MCF-7) were further collected to analyze protein expression by using a western blot. Accordingly, we determined the expression of several key factors that have been reported to modulate self-renewal and drug resistance of cancer cells, including SOX2, Nanog, OCT4, Lin28A, CCND1.
(§5) On the other hands, similar experiments above are also performed to identify the upstream modulator of TRBP.
as §1

[7] = test system: p-AKT; assay: Western blot of p-AKT; assay type: cell-based; conditions: left of FIG. 8K
Procedure: as §5, §1

[8] = test system: SOX2 protein; assay: SOX2 protein stability; assay type: cell-based
[9] = test system: TRBP protein; assay: Cycloheximide chase, TRBP protein stability by western blot; assay type: cell-based
Procedure: as §2, §1

[10] = test system: ER+ breast cancer cell (ZR-75-1)
Procedure: as §6

[11] = test system: TRBP; assay: Western blot of TRBP expression after tamoxifen or 4OHT treatment; assay type: cell-based; conditions: 48 hours
Procedure: as §5, §1

[12] = test system: cyclin D1; assay: qRT-PCR and western blot of cyclin D1; assay type: cell-based; conditions: MCF-7 cells, 2 μM, 48 hours, FIG. 8A/8B
Procedure: as §4, §1, §3

Compound	cytotoxic effects (MTT) [1]	expression of Merlin ([2]; MCF-7 cells, FIG. 7D)	expression of Merlin ([2]; ZR-75-1 cells, FIG. 7E)	TRBP mRNA level ([3]; MCF-7/TR1 cells)	TRBP mRNA level ([3]; MCF-7/TR cells pretreated with 2 μM tamoxifen for 48 hours)	cytotoxic effects (MTT) [4]	expression of SOX2 mRNA [5]	expression of SOX2 protein ([6]; MCF-7 cells, 2 μM, 48 hours, FIG. 8B)	SOX2 level after tamoxifen treatment ([6]; right of FIG. 8K)	p-AKT level after tamoxifen treatment [7]	SOX2 protein degradation ([8]; tamoxifen-treated vs untreated MCF-7, FIG. 8G)	SOX2 protein degradation ([8]; tamoxifen-treated vs untreated MCF-7/TR, FIG. 8H)	degradation of TRBP protein ([9]; tamoxifen-treated vs untreated MCF-7, 50 μg/ml cycloheximide, FIG. 7B)	degradation of TRBP protein ([9]; tamoxifen-treated vs untreated MCF-7/TR1, 50 μg/ml cycloheximide, FIG. 7C)	cytotoxic effects (MTT) [10]	TRBP expression ([11]; ER- Hs578T cells, FIG. 5E)	TRBP expression ([11]; ER- MDA-MB-231 cells, FIG. 5E)	TRBP expression ([11]; ER- SKBR3 cells, FIG. 5E)	TRBP expression ([11]; MCF-7/TR cells, increasing concentrations, FIG. 5A/5B)	cyclin D1 expression [12]
4-hydroxytamoxifen	noncytotoxic	–	–	–	–	–	–	–	–	–	–	–	–	–	–	–	–	–	–	–
CC/C(=C(\c1ccccc1)c1ccc(OCCN(C)C)cc1)c1ccccc1 [tamoxifen]	–	suppressed in a dose-dependent manner	suppressed in a dose-dependent manner	not significantly changed	not significantly changed	without inducing any significant cytotoxic effects	upregulated; also recorded: enhanced SOX2 expression	upregulated expression of SOX2 protein	elevated-SOX2 level	elevated-AKT level	degraded more slowly	degraded more slowly	significant prolonged degradation of TRBP protein	significant prolonged degradation of TRBP protein	noncytotoxic	no significant induction of TRBP	no significant induction of TRBP	no significant induction of TRBP	induced the TRBP expression in a dose-dependent manner	reduction of cyclin D1

— patent US11435353B2, “Method of evaluating drug resistance and treatment effect” (priority 2018, dated 2022)
